Measured values reported in BindingDB's records for doi:10.1021/jm0009437 (Institut Curie, 2000).

target: T1, Gag-Pol polyprotein [588-1027]/[588-1147] (Human immunodeficiency virus 1, UniProt P04585); experiment: HIV-1 RT Assay; settings: pH 8; 37 °C
T1 construct: 588-1027; 588-1147

SMILES | IC50
CCc1c(C)nc(O)c(N)c1Cc1cc(C)cc(C)c1 [3-amino-4-[(3,5-dimethylphenyl)methyl]-5-ethyl-6-methyl-1,2-dihydropyridin-2-one] | 0.1 µM
CCc1c(C)[nH]c(=O)c([N+](=O)[O-])c1Sc1cc(C)cc(C)c1 [4-[(3,5-dimethylphenyl)sulfanyl]-5-ethyl-6-methyl-3-nitro-1,2-dihydropyridin-2-one] | 0.03 µM
CCc1c(C)nc(O)c(N)c1C(=O)c1cc(C)cc(C)c1 [3-amino-4-[(3,5-dimethylphenyl)carbonyl]-5-ethyl-6-methyl-1,2-dihydropyridin-2-one] | 0.1 µM
